Data from patent US9057929B2, “Quinolinium single crystals for use in nonlinear optics” (AJOU UNIVERSITY INDUSTRY-ACADEMIC COOPERATION FOUNDATION, priority 2011, dated 2015).
Read-outs that look alike come from different tables or passages of the source.

Experiments:
Solubility in methanol = experiment: Solubility in methanol
Description: Meanwhile, the solubility in methanol of the quinolinium derivative according to the present invention is illustrated in (a) of FIG. 6. […] The solid line in the graph is based on the known Van't Hoff thermodynamic equilibrium equation using an ideal solution.

[1] = Thermal properties by DSC and TGA at a scanning rate of 10° C./min (thermal weight-loss temperature Ti); assay type: physicochemical; settings: for Ti (thermal weight-loss temperature), second number of the Tm/Ti cell: intercept of leading edge of weight loss with baseline
Procedure: As results of measurement of thermal properties of the quinolinium derivative according to the present invention using differential scanning calorimetry (DSC) and thermogravimetric analysis (TGA) at a scanning rate of 10° C./min, the thermal weight-loss temperature Ti was estimated as a temperature at the intercept of the leading edge of the weight loss by the baseline of TGA scans.

Row | Compound | solubility in methanol (Solubility in methanol) [g/100 g methanol] | Ti (thermal weight-loss temperature), second number of the Tm/Ti cell ([1]; TGA, 10° C./min) | thermal stability of the crystal (FIG. 2) ([1]; TGA, 10° C./min) [°C] | solubility in methanol as a reaction solvent (Solubility in methanol; methanol, temperature not given) [g/100 g methanol] | thermal stability of the crystal (FIG. 2) [1]
1 | 2-(4-hydroxy-3-methoxystyryl)-1-methylquinolinium 4-methoxylbenzenesulfonate [HMQ-MBS] | 0.56 | 265/291 °C |  |  | 
2 | CN(C)c1ccc(C=Cc2cc[n+](C)cc2)cc1.Cc1ccc(S(=O)(=O)[O-])cc1 [DAST, N,N-dimethylamino-N′-methylstilbazolium 4-methylbenzenesulfonate, reference compound] |  | 250/250 °C | 260 |  | 
3 | COc1cc(C=Cc2ccc3ccccc3[n+]2C)ccc1O.[I+] [HMQ-I, 2-(4-hydroxy-3-methoxystyryl)-1-methylquinolinium iodine] |  |  |  | 0.14 | 
4 | COc1cc(C=Cc2ccc3ccccc3[n+]2C)ccc1O.Cc1ccc(S(=O)(=O)[O-])cc1 [HMQ-T, 2-(4-hydroxy-3-methoxystyryl)-1-methylquinolinium 4-methylbenzenesulfonate] | 0.89 | 273/297 °C |  |  | exceeding 290 °C
5 | CC1(C)CC(C=Cc2ccc(O)cc2)=CC(=C(C#N)C#N)C1 [OH1, 2-(3-(4-hydroxystyryl)-5,5-dimethylcyclohex-2-enylidene)malononitrile, reference compound] |  | 212/325 °C |  |  | 
